Measured values taken from patent US20260374766A1, “METHODS FOR TREATING CANCER” (Antares Therapeutics, Inc., priority 2022, published 2026).
Like-named read-outs stand apart in the source and are kept apart here.

Legend:
p53 Y220C = p53 Y220C (Homo sapiens, UniProt P04637, Y220C); assay: Luciferase Reporter Assay (Luc), p53 response element, NClH1299 cells with inducible p53 Y220C; format: cell-based; details: 6 hour; for AC50: read-out: Luc P53 Y220C AC50
Method: Luciferase Reporter Assay Protocol
The cells were then used for p53 reporter assay. 5,000 cells were seeded in each well of 384 plate and cultured in 0.5 ug/mL doxycycline (D3072; Sigma) containing medium for 24 hours before compound treatment. After 6 hour of compound treatment, equal volume of One-Glo reagent (E6110; Promega) was added to each well and the plate was incubated for 5 minutes with shaking at room temperature. The luciferase activity was immediately measured with PheraStar microplate reader.

H1299 p53 Y220C = assay: Cell Proliferation Assay (CellTiter-Glo, CTG), H1299 p53 Y220C (NClH1299-inducible p53 Y220C); format: cell-based; details: Homo sapiens, NCI-H1299, 120 h, NClH1299-inducible p53 Y220C cells, 5 days
Method: (§1) Inducible p53 Y220C and R273H constructs (Tet-One inducible expression system; Takara) were stably expressed in NClH1299 cells by lentiviral transduction. NUGC3, A549, BxPC3, T3M4, HuH7, HCC2935, MFE296, NClH1299, NClH1299-inducible p53 Y220C, and NClH1299-inducible p53 R273H cell lines were used for cell proliferation assay. 250-500 cells were seeded in each well of 384 plate and then compounds were dispensed into each well using Echo or Tecan. After 5 days of incubation, equal volume of CellTiter-Glo reagent (G7570; Promega) was added into each well and the plate was incubated at room temperature for 10 minutes with shaking. The luminescent signal was measured by PheraStar microplate reader and IC50 was calculated.

[1] = biological target: T1, p53 Y220C mutant protein (amino acid residues 94-293) (Homo sapiens, UniProt P04637, Y220C); assay: Surface Plasmon Resonance (SPR) assay, Kd_kinetic; format: binding; details: SPR, p53 Y220C, read-out: SPR P53 Y220C KD kinetic
T1 construct: p53 Y220C mutant protein (amino acid residues 94-293)
T1 sequence (P04637 94-293, stated change not applied): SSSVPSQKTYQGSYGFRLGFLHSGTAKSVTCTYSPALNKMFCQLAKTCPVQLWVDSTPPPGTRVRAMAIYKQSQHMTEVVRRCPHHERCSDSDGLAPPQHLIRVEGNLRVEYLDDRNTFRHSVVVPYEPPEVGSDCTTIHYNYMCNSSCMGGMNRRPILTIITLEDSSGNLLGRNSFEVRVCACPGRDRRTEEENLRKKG
Method: Surface Plasmon Resonance (SPR) Assay Protocol
SPR experiments were performed on a Biacore 8K instrument. […] The running buffer contained 50 mM Tris, pH 7.5, 100 mM NaCl, 1 mM DTT, 0.01% Brij35, 0.05% Tween-20 and 1% DMSO. The assay temperature was maintained at 16 or 20 °C and data were fit into the 1:1 binding model using the Biacore Insight Evaluation software.

H1299 p53 R273H = assay: Cell Proliferation Assay (CellTiter-Glo, CTG), H1299 p53 R273H (NClH1299-inducible p53 R273H); format: cell-based; details: Homo sapiens, NCI-H1299, 120 h, CellTiter-Glo, 5 days
Method: as §1

NUGC3 p53 Y220C = assay: Cell Proliferation Assay (CellTiter-Glo, CTG), NUGC3 p53 Y220C; format: cell-based; details: Homo sapiens, NUGC-3, 120 h, NUGC3 cells, 5 days, CellTiter-Glo
Method: as §1

[2] = Emax, luciferase reporter, NClH1299 inducible p53 Y220C
[3] = Emax, NClH1299 cells with inducible p53 Y220C, 10 uM tool compound as positive control
[4] = AC50, luciferase reporter, NClH1299 inducible p53 Y220C
[5] = AC50, NClH1299 cells with inducible p53 Y220C
[6] = luciferase reporter, NClH1299 inducible p53 Y220C, 10 uM tool compound as positive control
[7] = luciferase reporter, NClH1299 inducible p53 Y220C

`CNC(=O)c1ccc(NCC#Cc2nc3c(N[C@H]4C[C@H]5COC[C@H](N5)[C@H]4F)cccn3c2SC(F)(F)F)c(OC)c1` [Example 281] was tested. Which Emax (p53 Y220C; [2]) did it give?
The Emax was 80 to 90%.

And the IC50 (H1299 p53 Y220C; CellTiter-Glo)?
The IC50 was 1500 to 3000 nM.

Which results are given for `[2H]C([2H])([2H])N1CC[C@@H](Nc2cccn3c(SC(F)(F)F)c(C#CCNc4ccc(S(C)(=O)=O)cc4OC)cc23)[C@@H](F)C1` [Example 501]?
Emax (p53 Y220C; [3]): > 90%; IC50 (H1299 p53 Y220C): < 750 nM

Which AC50 (p53 Y220C; [4]) does the source give for `COc1cc(C(=O)NCC2CN(C)C2)ccc1NCC#Cc1nc2c(N[C@@H]3CCOC[C@@H]3F)cccn2c1SC(F)(F)F` [Example 227] here?
The AC50 was over 3000 nM.

What about the Emax (p53 Y220C; [2]) of the same compound?
Its Emax is 70 to 80%.

And the Kd [1]?
Its Kd is under 10 nM.

And the IC50 (H1299 p53 Y220C; CellTiter-Glo)?
Its IC50 is over 3000 nM.

`CNC(=O)c1ccc(OCC2(O)CC2)c(NCC#Cc2cc3c(N[C@@H]4CCN(C)C[C@@H]4F)cccn3c2SC(F)(F)F)c1` [Example 467] was tested. Which AC50 (p53 Y220C; [5]) did it give?
The AC50 was under 750 nM.

What about the Emax (p53 Y220C; [3]) of the same compound?
Its Emax is over 90%.

What about the Kd [1] of the same compound?
Its Kd is under 10 nM.

And the IC50 (H1299 p53 Y220C)?
The IC50 was under 750 nM.

`CNC(=O)c1cnc(OC)c(NCC#Cc2nc3c(N[C@@H]4CCN(C)C[C@@H]4F)cccn3c2SC(F)(F)F)n1` [Example 157] was tested. Which IC50 (H1299 p53 R273H; H1299 p53 R273H) did it give?
The IC50 was at least 10000 nM.

And the Emax (p53 Y220C; [6])?
Its Emax is 80 to 90%.

And the AC50 (p53 Y220C; [7])?
The AC50 was under 750 nM.

And the Kd ([1]; kinetic KD)?
The Kd was under 10 nM.

Which results are given for `[2H]C([2H])([2H])Oc1cc(S(C)(=O)=O)ccc1NCC#Cc1cc2c(N[C@@H]3CCN(C)C[C@@H]3F)cccn2c1SC(F)(F)F` [Example 485]?
AC50 (p53 Y220C; [5]): < 750 nM; Emax (p53 Y220C; [3]): > 90%; Kd [1]: < 10 nM

With `COc1cc2c(cc1NCC#Cc1nc3c(N[C@@H]4CCN(C)C[C@@H]4F)cccn3c1CC(F)(F)F)CNC2=O` [Example 95, 5-{[3-(8-{[(3S,4R)-3-fluoro-1-methylpiperidin-4-yl]amino}-3-(2,2,2-trifluoroethyl)imidazo[1,2-a]pyridin-2-yl)prop-2-yn-1-yl]amino}-6-methoxy-2,3-dihydroisoindol-1-one] as the compound, how does the Kd ([1]; kinetic KD) read?
Its Kd is under 10 nM.

With `CNC(=O)c1ccc(NCC#Cc2cc3c(N[C@@H]4CCN(C)C[C@@H]4F)cccn3c2SC(F)(F)F)c(O[C@H]2C[C@H](O)C2)c1` [Example 398] as the compound, how does the AC50 (p53 Y220C; [4]) read?
The AC50 was under 750 nM.

What about the Emax (p53 Y220C; [2]) of the same compound?
The Emax was 80 to 90%.

And the Kd [1]?
The Kd was under 10 nM.

For `CNC(=O)c1ccc(NCC#Cc2nc3c(N[C@@H]4CCN(C)C[C@@H]4F)cccn3c2C(F)(F)C(F)(F)F)c(OC)c1` [Example 30, 4-{[3-(8-{[(3S,4R)-3-fluoro-1-methylpiperidin-4-yl]amino}-3-(1,1,2,2,2-pentafluoroethyl)imidazo[1,2-a]pyridin-2-yl)prop-2-yn-1-yl]amino}-3-methoxy-N-methylbenzamide], which Emax (p53 Y220C; [6]) is on record?
Its Emax is over 90%.

What about the AC50 (p53 Y220C; [7]) of the same compound?
The AC50 was over 3000 nM.

What about the Kd ([1]; kinetic KD) of the same compound?
Its Kd is 10 to 100 nM.

For `[2H]C([2H])([2H])Oc1cc(S(C)(=O)=O)ccc1NCC#Cc1nc2c(N[C@@H]3CCN(C)C[C@@H]3C)cccn2c1SC(F)(F)F` [Example 454], which AC50 (p53 Y220C; [5]) is on record?
The AC50 was under 750 nM.

And the Emax (p53 Y220C; [3])?
Its Emax is over 90%.

What about the Kd [1] of the same compound?
Its Kd is under 10 nM.

What does the source list for `[2H]C([2H])([2H])Oc1cc(C(=O)NC)ccc1NCC#Cc1nc2c(N[C@@H]3CCN(C)C[C@@H]3F)cccn2c1SC(F)(F)F` [Example 505, 4-{[3-(8-{[(3S,4R)-3-fluoro-1-methylpiperidin-4-yl]amino}-3-[(trifluoromethyl)sulfanyl]imidazo[1,2-a]pyridin-2-yl)prop-2-yn-1-yl]amino}-3-(2H3)methoxy-N-methylbenzamide]?
Emax (p53 Y220C; [3]): > 90%; IC50 (H1299 p53 Y220C): < 750 nM

Which AC50 (p53 Y220C; [5]) does the source give for `[2H]C([2H])([2H])Oc1cc(S(C)(=O)=O)ccc1NCC#Cc1nc2c(N[C@@H]3CCN(C)C[C@@H]3F)nccn2c1SC(F)(F)F` [Example 490] here?
The AC50 was under 750 nM.

And the Emax (p53 Y220C; [3])?
The Emax was over 90%.

And the Kd [1]?
Its Kd is under 10 nM.

Which results are given for `C[C@H](O)CNC(=O)c1ccc(OC2COC2)c(NCC#Cc2cc3c(N[C@@H]4CCN(C)C[C@@H]4F)cccn3c2SC(F)(F)F)c1` [Example 400]?
AC50 (p53 Y220C; [4]): < 750 nM; Emax (p53 Y220C; [2]): 80 to 90%; Kd [1]: < 10 nM; IC50 (H1299 p53 Y220C; CellTiter-Glo): < 750 nM

How did the IC50 (NUGC3 p53 Y220C) turn out when `CNC(=O)c1ccc(NCC#Cc2nc3c(N[C@H]4C[C@H]5COC[C@H](N5)[C@H]4F)cccn3c2SC(F)(F)F)c(OC)c1` [Example 282] was run?
Its IC50 is under 750 nM.

And the IC50 (H1299 p53 R273H; NClH1299-inducible p53 R273H cells)?
Its IC50 is at least 10000 nM.
